Results as given in PubChem BioAssay (NCI).
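96-well plates; 48 h exposure; 5 concentrations. Endpoints by linear interpolation between flanking doses. Not reached: highest tested concentration assigned. At the GI50, growth is halved. TGI: concentration producing complete growth inhibition.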

Assays:
Assay in all cases: NCI-60 cell line screen, 48 h
SN12C renal = test system: SN12C renal
BT-549 breast = test system: BT-549 breast
TK-10 renal = test system: TK-10 renal
CAKI-1 renal = test system: CAKI-1 renal
OVCAR-8 ovarian = test system: OVCAR-8 ovarian
NCI-H23 lung = test system: NCI-H23 lung
IGROV1 ovarian = test system: IGROV1 ovarian
SK-MEL-2 melanoma = test system: SK-MEL-2 melanoma
EKVX NSCLC = test system: EKVX NSCLC
NCI-H226 lung = test system: NCI-H226 lung
HOP-62 NSCLC = test system: HOP-62 NSCLC
UO-31 renal = test system: UO-31 renal
MDA-MB-435 = test system: MDA-MB-435
MCF7 breast = test system: MCF7 breast
PC-3 prostate = test system: PC-3 prostate
SK-OV-3 ovarian = test system: SK-OV-3 ovarian
MALME-3M melanoma = test system: MALME-3M melanoma
SR leukemia = test system: SR leukemia
OVCAR-5 ovarian = test system: OVCAR-5 ovarian
SF-295 CNS = test system: SF-295 CNS
MDA-MB-231 breast = test system: MDA-MB-231 breast
RXF 393 renal = test system: RXF 393 renal
HL-60(TB) leukemia = test system: HL-60(TB) leukemia
HCT-116 colon = test system: HCT-116 colon
A498 renal = test system: A498 renal
SK-MEL-5 melanoma = test system: SK-MEL-5 melanoma
SF-539 CNS = test system: SF-539 CNS
SW-620 colon = test system: SW-620 colon
UACC-257 melanoma = test system: UACC-257 melanoma

Q: With CN1CCN(Cc2ccc(NC(=O)c3cncc(C#Cc4cnc5ccc(OCC6(C)COC6)nn45)c3)cc2C(F)(F)F)CC1 as the compound, how does the GI50 (SN12C renal) read?
A: The GI50 was 112 nM.

Q: And the TGI (SN12C renal)?
A: Its TGI is 489 nM.

Q: And the GI50 (BT-549 breast)?
A: Its GI50 is 320 nM.

Q: And the TGI (BT-549 breast)?
A: Its TGI is 940 nM.

Q: What about the GI50 (TK-10 renal) of the same compound?
A: The GI50 was 149 nM.

Q: What about the TGI (TK-10 renal) of the same compound?
A: Its TGI is 451 nM.

Q: And the GI50 (CAKI-1 renal)?
A: The GI50 was 87.8 nM.

Q: What about the TGI (CAKI-1 renal) of the same compound?
A: The TGI was 254 nM.

Q: And the GI50 (OVCAR-8 ovarian)?
A: The GI50 was 157 nM.

Q: And the TGI (OVCAR-8 ovarian)?
A: Its TGI is 547 nM.

Q: What about the GI50 (NCI-H23 lung) of the same compound?
A: Its GI50 is 134 nM.

Q: What about the TGI (NCI-H23 lung) of the same compound?
A: The TGI was 462 nM.

Q: What about the GI50 (IGROV1 ovarian) of the same compound?
A: The GI50 was 105 nM.

Q: And the TGI (IGROV1 ovarian)?
A: Its TGI is 437 nM.

Q: What about the GI50 (SK-MEL-2 melanoma) of the same compound?
A: Its GI50 is 102 nM.

Q: What about the TGI (SK-MEL-2 melanoma) of the same compound?
A: Its TGI is 218 nM.

Q: What about the GI50 (EKVX NSCLC) of the same compound?
A: Its GI50 is 152 nM.

Q: What about the TGI (EKVX NSCLC) of the same compound?
A: The TGI was 641 nM.

Q: And the GI50 (NCI-H226 lung)?
A: The GI50 was 98.5 nM.

Q: What about the TGI (NCI-H226 lung) of the same compound?
A: Its TGI is 975 nM.

Q: And the GI50 (HOP-62 NSCLC)?
A: The GI50 was 156 nM.

Q: What about the TGI (HOP-62 NSCLC) of the same compound?
A: The TGI was 518 nM.

Q: What about the GI50 (UO-31 renal) of the same compound?
A: The GI50 was 130 nM.

Q: What about the TGI (UO-31 renal) of the same compound?
A: The TGI was 436 nM.

Q: And the GI50 (MDA-MB-435)?
A: Its GI50 is 142 nM.

Q: And the TGI (MDA-MB-435)?
A: Its TGI is 535 nM.

Q: What about the GI50 (MCF7 breast) of the same compound?
A: Its GI50 is 86 nM.

Q: What about the TGI (MCF7 breast) of the same compound?
A: The TGI was 525 nM.

Q: What about the GI50 (PC-3 prostate) of the same compound?
A: Its GI50 is 218 nM.

Q: And the TGI (PC-3 prostate)?
A: The TGI was 830 nM.

Q: What about the GI50 (SK-OV-3 ovarian) of the same compound?
A: Its GI50 is 233 nM.

Q: What about the TGI (SK-OV-3 ovarian) of the same compound?
A: Its TGI is 747 nM.

Q: What about the GI50 (MALME-3M melanoma) of the same compound?
A: Its GI50 is 89 nM.

Q: And the TGI (MALME-3M melanoma)?
A: The TGI was 303 nM.

Q: And the GI50 (SR leukemia)?
A: Its GI50 is 140 nM.

Q: And the TGI (SR leukemia)?
A: Its TGI is 1650 nM.

Q: What about the GI50 (OVCAR-5 ovarian) of the same compound?
A: Its GI50 is 172 nM.

Q: What about the TGI (OVCAR-5 ovarian) of the same compound?
A: The TGI was 609 nM.

Q: And the GI50 (SF-295 CNS)?
A: Its GI50 is 440 nM.

Q: What about the TGI (SF-295 CNS) of the same compound?
A: Its TGI is 1070 nM.

Q: What about the GI50 (MDA-MB-231 breast) of the same compound?
A: Its GI50 is 73.1 nM.

Q: And the TGI (MDA-MB-231 breast)?
A: Its TGI is 243 nM.

Q: What about the GI50 (RXF 393 renal) of the same compound?
A: Its GI50 is 113 nM.

Q: And the TGI (RXF 393 renal)?
A: The TGI was 294 nM.

Q: What about the GI50 (HL-60(TB) leukemia) of the same compound?
A: The GI50 was 190 nM.

Q: What about the TGI (HL-60(TB) leukemia) of the same compound?
A: Its TGI is 604 nM.

Q: And the GI50 (HCT-116 colon)?
A: Its GI50 is 125 nM.

Q: And the TGI (HCT-116 colon)?
A: Its TGI is 476 nM.

Q: What about the GI50 (A498 renal) of the same compound?
A: Its GI50 is 142 nM.

Q: And the TGI (A498 renal)?
A: Its TGI is 407 nM.

Q: And the GI50 (SK-MEL-5 melanoma)?
A: The GI50 was 642 nM.

Q: And the TGI (SK-MEL-5 melanoma)?
A: Its TGI is 1280 nM.

Q: What about the GI50 (SF-539 CNS) of the same compound?
A: The GI50 was 91.1 nM.

Q: What about the TGI (SF-539 CNS) of the same compound?
A: The TGI was 573 nM.

Q: And the GI50 (SW-620 colon)?
A: Its GI50 is 121 nM.

Q: And the TGI (SW-620 colon)?
A: The TGI was 317 nM.

Q: And the GI50 (UACC-257 melanoma)?
A: Its GI50 is 228 nM.
